Measurements as given in patent US20050089516A1, “Skin vitalizing composition for external use anti-aging preparation” (SHISEIDO COMPANY, LTD., priority 2002, published 2005).

Assays:
type VII collagen = experiment: Artificial skin culture, immunostaining with anti-type VII collagen antibody; format: cell-based, human; conditions: Example 1; culturing for 2 weeks; 10 μM compound A, 10 μg/ml aprotinin, 1 ng/ml interleukin-1β, 1 ng/ml TGF-α, 100 ng/ml PDGF; versus no-compound control
Description: (§1) Collagen gel was obtained by preparing 10 ml of a human dermal fibroblasts (0.3-1×10^5 cell/ml)-suspended collagen solution (using I-AC collagen manufactured by Koken Co., Ltd.) on ice, followed by gelling the collagen in a 60 mm Petri dish at 37° C. The gel was then peeled from the bottom of the dish, the collagen gel was placed on metal, and a glass ring (12 mm inner diameter) was placed over the gel. A 0.4 ml portion of a human foreskin-derived epidermal keratinocyte (1×10^6/ml) suspension (KGM-DMEM (1:1) mixed medium containing 5% fetal bovine serum) was poured into the glass ring while avoiding leakage. The keratinocytes were allowed to adhere in a CO2 incubator overnight, and the ring was removed on the following day. The medium was filled in up to the border of the epidermal layer, and culturing was continued while exposing the epidermal layer to the air, to prepare a multilayered skin model with epidermis having a horny layer. […]

[1] = system: basement membrane structure directly under the epidermis; experiment: Transmission electron microscopy of artificial skin; format: cell-based, human; conditions: Example 1; 10 μM compound A, with or without 10 μg/ml aprotinin
Description: as §1

COc1ccc(S(=O)(=O)N(Cc2cccnc2)C(C(=O)NO)C(C)C)cc1.Cl (centres unmarked) [compound A]
staining of type VII collagen directly under the basal keratinocytes (type VII collagen): weak but definite staining | basement membrane structure by transmission electron microscope [1]: induced formation of the basement membrane
